Source: patent US20240272101A1, “Direct Sampling from Phase-Separated Sample for Hydrophobicity Assessment” (DH Technologies Development Pte. Ltd., priority 2021, published 2024)

What was measured:
[1] = known values, quoted for comparison; cited from earlier work
[2] = mass spectrometric hydrophobicity assessment: acoustic droplet ejection from water/pentanol two-phase system versus single-phase aqueous solution; type: physicochemical; conditions: MRM signal; 25 μL pentanol added to 25 μL water, 1 μg/mL analyte; FIGS. 7A and 7B
Description: A two-phase system was prepared by adding […] of pentanol to 25 μL of an aqueous solution of dextromethorphan. A SCIEX Triple Quad 6500+ mass spectrometer system having an acoustic droplet dispenser (shown schematically in FIG. 4) equipped with a two-layer acoustic calibration was employed to eject a plurality of droplets from the two-phase system into an OPI of the mass spectrometer for observing an MRM transition of the target analyte. Although in this example, a single MRM transition was monitored, in other cases, multiple MRM transitions of the target analyte can be monitored.
A single-phase aqueous sample was prepared as 1 μg/ml of dextromethorphan in 25 μL of water. A two-phase system was then formed by adding 25 μL of pentanol to 25 μL water in which 0.025 μg was mixed.
The above mass spectrometer was then utilized to obtain a series of measurements of the 272.2→215.1 MRM transition of the target analyte via sampling the single-phase solution and the two-phase system.
By way of comparison, a single-phase aqueous sample of adenosine was prepared by mixing adenosine with 25 μL of water to prepare a single-phase aqueous solution having a concentration of 1 μg/mL of adenosine. A two-phase system was prepared by adding 25 μL of pentanol to 25 μL aqueous single-phase system of adenosine having a concentration of 1 μg/mL adenosine. […]

SMILES | log P [1] | relative ratio of the two-phase sampling signal versus the aqueous sampling signal [2]
COc1ccc2c(c1)[C@]13CCCC[C@@H]1[C@H](C2)N(C)CC3 [dextromethorphan] | +3.75 | –
Nc1ncnc2c1ncn2[C@@H]1O[C@H](CO)[C@@H](O)[C@H]1O [adenosine] | −1.05 | less than that associated with dextromethorphan
